Measurements: US6413975B1, “Purine derivatives having phosphodiesterase iv inhibition activity” (Euro-Celtique, S.A., priority 1999, dated 2002)
Like-named read-outs stand apart in the source and are kept apart here.

How the values were obtained:
Type IV PDE = assay: PDE IV inhibition: hydrolysis of [3H]-cyclic AMP by isolated Type IV PDE; assay type: biochemical, bovine
Summary of the method: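 Type IV PDE was partially purified from bovine tracheal smooth muscle by DEAE ion-exchange chromatography. Activity was measured as [3H]-cAMP hydrolysis at 0.2 μM cAMP (≈Km), with protein adjusted so that ≤15% of substrate was hydrolysed. Compounds were tested in 2.5% final DMSO.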

[1] = tested on: ovalbumin-sensitized guinea pigs (eosinophils in BAL); assay: Ovalbumin sensitization and challenge in guinea pigs, differential cell counts in bronchoalveolar lavage; assay type: in vivo, guinea pig; settings: 5 mg/kg ip one hour prior to ovalbumin challenge; for % Eosinophils in BAL x ± se: BAL 24 hours after aerosol exposure; for % Inhibition: eosinophils in BAL versus vehicle
Description: (i) The effect of test compounds in a model of bronchial hyperresponsiveness (BHR) and cellular infiltration in the guinea pig induced by ovalbumin (see, for example Morley et al, Agents and Actions, Supplement, 1988, 23, 187) were studied.
(ii) Sensitization and Challenge procedure: Male Dunkin Hartley guine pigs (Charles River) (200-250 g) were injected i.p. with ovalbumin (OVA) (0.5 ml/animal; 20 μg OVA in AlOH)3 (moist gel)); this preparation produced an injectable stable suspension containing excess Al(OH)3. Sham animals were injected with 0.5 ml Al(OH)3 alone. After a period of 18-21 days animals were exposed to an aerosol of OVA (100 μg/ml) for 1 hour in an exposure chamber.
(iii) Bronchoalveloar lavage: Animals were anaesthetized, 24 hours after aerosol exposure, with urethane (25%, w/v, 7 ml/kg, i.p.) and the trachea cannulated. Bronchoalveo-lar lavage (BAL) was performed by instilling 5 ml sterile saline into the lungs via the tracheal cannula and the fluid was immediately removed. The fluid was reinjected and the procedure repeated 5 times in total. […] Total cell counts were perfomed on the resultant BAL fluid using an improved Neubauer haemocytometer. Cytospin preparations were prepared using a Shandon Cytospin 2 centrifuge. Two drops of BAL fluid were added to each cytospin cup and the samples were centrifuged for 1 min at 1300 r.p.m. Slides were fixed in acetone and stained with haemotoxylin and carbol chromotrope according to the method described by Lendrum (Lendrum 1944), differential cell counts were performed on each slide by counting 200 cells at random, the cell types were classified as neutrophils, eosinophils and mononuclear cells according to standard morphological criteria. Cells were counted blind. The results are expressed as the number of neutrophils, eosinophils and mononuclear cells per ml of BAL fluid. The remaining BAL fluid was centrifuged (10 min., 1000 g) and the resultant cells and cell free supernatants were aliquotted and frozen for later assays. Compounds were solu-bilized in either DMSO or saline administered intraperitoreally at a dose of 5 mg/kg one hour prior to ovalbumin challenge.

[2] = tested on: Guinea pig isolated trachealis muscle; assay: Isolated guinea pig trachea: relaxation of airways muscle; assay type: cell-based; settings: compared with theophylline as standard (= 1); cumulative concentration effect curves
Description: The test compound was dissolved in dimethylsulfoxide. Guinea pig isolated trachealis muscle was mounted in a bath containing Krebs solution maintained at 37.5° C. and bubbled with carbogen (95% 02, 5% CO2).
Tension changes were recorded isometrically using force displacement transducers in conjunction with potentiometric pen recorders.
The ability of the test compounds to relax airways muscle was investigated by the construction of cumulative concentration effect curves. Each concentration of the test compound was allowed to equilibrate with the tissue for 5 minutes before a concentration increment (ten-fold) was made.
In each tissue the test compound was compared with theophylline as standard.

[3] = adenines, Table 7, read-out: calc PDE IV IC50

| Structure (SMILES) | melting point [°C] | IC50 (Type IV PDE; [3]) [µM] | % Eosinophils in BAL x ± se [1] [%] | % Inhibition [1] [%] | In Vitro Activity [2] | further results |
| --- | --- | --- | --- | --- | --- | --- |
| CCNc1ncn(Cc2ccc(OC)c(OC3CCCC3)c2)c2nc(C(C)C)nc1-2.Cl [3-(3-Cyclopentyloxy-4-methoxybenzyl)-6-ethylamino-8-isopropyl-3H-purine Hydrochloride] |  |  | 12 ± 2 | 64 |  | IC50 (Type IV PDE; read-out: PDE IV I50): 0.32 µM |
| COc1ccc(Cn2c(=S)[nH]c(=S)c3[nH]c(C(C)C)nc32)cc1OC1CCCC1 [3-(3-cyclopentyloxy-4-methoxybenzyl)-3,7-dihydro-8-isopropyl-2,6-dithio-1H-purine-2,6-dione] |  |  | 17 ± 3 | 47 |  | IC50 (Type IV PDE; dithioxanthines, Table 5, read-out: IC50 PDE IV): 0.6 µM; IC50 (Type IV PDE; read-out: PDE IV I50): 0.8 µM |
| COc1ccc(Cn2cnc(N)c3nc(C(C)(C)OCc4ccc(F)cc4)nc2-3)cc1OC1CCCC1.Cl [6-Amino-3-(3-cyclopentyloxy-4-methoxy-benzyl)-8-(1-(4-fluorobenzyloxy)-1-methyl-ethyl)-3H-purine hydrochloride] | 165 to 174 | 0.034 |  |  |  |  |
| COc1ccc(Cn2cnc(N)c3nc(C(C)(C)OCc4ccccc4)nc2-3)cc1OC1CCCC1.Cl [6-Amino-8-(1-benzyloxy-1-methyl-ethyl)-3-(3-cyclopentyloxy-4-methoxy-benzyl)-3H-purine Hydrochloride] | 201 to 203 | 0.005 |  |  |  |  |
| CCCCCCn1cnc(NCC)c2ncnc1-2 [6-Ethylamino-3-hexyl-3H-purine] |  |  |  |  | 25.6 |  |
| CCNc1ncn(Cc2ccc(OC)c(OC3CCCC3)c2)c2nc(C(C)(C)OCc3ccccc3)nc1-2.Cl [8-(1-Benzyloxy-1-methyl-ethyl)-3-(3-cyclopentyloxy-4-methoxy-benzyl)-6-ethylamino-3H-purine Hydrochloride] | 148 to 150 | 0.85 |  |  |  |  |
| CCNc1ncn(CCC(C)C)c2nc(C3CC3)nc1-2.Cl [8-cyclopropyl-6-ethylamino-3-(3-methylbutyl)-3H-purine hydrochloride] |  |  | 16 ± 4 | 52 |  | IC50 (Type IV PDE; adenines, Table 4, cyclic AMP 0.2 μM, read-out: calc PDE IV IC50): 2.45 µM |
| Cn1c(=O)c2[nH]cnc2n(C)c1=O [Theophylline, reference compound] |  |  |  |  | 1 |  |

Second part, led by results:

| melting point [°C] | IC50 (Type IV PDE; [3]) [µM] | Structure (SMILES) | % Eosinophils in BAL x ± se [1] [%] | % Inhibition [1] [%] | In Vitro Activity [2] | further results |
| --- | --- | --- | --- | --- | --- | --- |
| 187 to 188 |  | CCNc1ncn(Cc2ccccc2)c2ncnc1-2 [3-Benzyl-6-ethylamino-3H-purine] |  |  | 18.5 |  |
|  | 27.1 | CCNc1ncn(CC)c2nc(C3CC3)nc1-2 [8-Cyclopropyl-3-ethyl-6-ethylamino-3H-purine] |  |  | 43.7 |  |
